For assay [1], the target named is Dual specificity protein kinase CLK1 (Homo sapiens, UniProt P49759).
In assay [2] the target is Dual specificity protein kinase CLK4 (Homo sapiens, UniProt Q9HAZ1).
Assay [3] concerns the target Dual specificity tyrosine-phosphorylation-regulated kinase 1A (Homo sapiens, UniProt Q13627).
For assay [4], the target named is Dual specificity tyrosine-phosphorylation-regulated kinase 1B (Homo sapiens, UniProt Q9Y463).
In assay [5] the target is Cyclin-dependent kinase 5 (Homo sapiens, UniProt Q00535).
Chain of Cyclin-dependent kinase 5 (Q00535 whole entry): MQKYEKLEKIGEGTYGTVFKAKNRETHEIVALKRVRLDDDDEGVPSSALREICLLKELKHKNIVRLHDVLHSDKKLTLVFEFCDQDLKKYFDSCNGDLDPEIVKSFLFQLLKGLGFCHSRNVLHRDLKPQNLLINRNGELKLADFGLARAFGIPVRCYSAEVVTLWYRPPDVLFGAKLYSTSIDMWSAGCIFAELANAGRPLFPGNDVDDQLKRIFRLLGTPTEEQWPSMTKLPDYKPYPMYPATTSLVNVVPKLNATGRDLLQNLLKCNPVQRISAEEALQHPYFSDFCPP
In a further assay the target is Casein kinase I. Type of assay: protein assay, Homo sapiens.
For assay [6], the target named is Dual specificity protein kinase CLK2 (Homo sapiens, UniProt P49760).
Chain of Dual specificity protein kinase CLK2 (P49760 whole entry): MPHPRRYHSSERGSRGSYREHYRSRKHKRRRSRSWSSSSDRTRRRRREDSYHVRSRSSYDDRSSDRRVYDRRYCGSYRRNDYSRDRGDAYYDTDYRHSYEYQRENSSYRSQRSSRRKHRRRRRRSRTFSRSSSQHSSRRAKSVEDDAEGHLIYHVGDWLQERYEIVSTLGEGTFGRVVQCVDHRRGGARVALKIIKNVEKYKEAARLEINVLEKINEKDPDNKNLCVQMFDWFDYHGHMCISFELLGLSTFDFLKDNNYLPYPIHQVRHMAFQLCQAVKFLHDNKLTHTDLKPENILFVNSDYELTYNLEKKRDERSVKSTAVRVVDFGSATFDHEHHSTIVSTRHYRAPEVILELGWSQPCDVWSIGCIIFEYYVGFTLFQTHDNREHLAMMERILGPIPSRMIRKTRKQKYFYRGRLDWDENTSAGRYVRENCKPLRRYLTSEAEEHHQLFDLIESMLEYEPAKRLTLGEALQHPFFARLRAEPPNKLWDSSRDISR
Assay [7] concerns the target Dual specificity protein kinase CLK3 (Homo sapiens, UniProt P49761).
For assay [8], the target named is T1, Dual specificity tyrosine-phosphorylation-regulated kinase 2 (Homo sapiens, UniProt Q92630).
T1 sequence (Q92630 whole entry): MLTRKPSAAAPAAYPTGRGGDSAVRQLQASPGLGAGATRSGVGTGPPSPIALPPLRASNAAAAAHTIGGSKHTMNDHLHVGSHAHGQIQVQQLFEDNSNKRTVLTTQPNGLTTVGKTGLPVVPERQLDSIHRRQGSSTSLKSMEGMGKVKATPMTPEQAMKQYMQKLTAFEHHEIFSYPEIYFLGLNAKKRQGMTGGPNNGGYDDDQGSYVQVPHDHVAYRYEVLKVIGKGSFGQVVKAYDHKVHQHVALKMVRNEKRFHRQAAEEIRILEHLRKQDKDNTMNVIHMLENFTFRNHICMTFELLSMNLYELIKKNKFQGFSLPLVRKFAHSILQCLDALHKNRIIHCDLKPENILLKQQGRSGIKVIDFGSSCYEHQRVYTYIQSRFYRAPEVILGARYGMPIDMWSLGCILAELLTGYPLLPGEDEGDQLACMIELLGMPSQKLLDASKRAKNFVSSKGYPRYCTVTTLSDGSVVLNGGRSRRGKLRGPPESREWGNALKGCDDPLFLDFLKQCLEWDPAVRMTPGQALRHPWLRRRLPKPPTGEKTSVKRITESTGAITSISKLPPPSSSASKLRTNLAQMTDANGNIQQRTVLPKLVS

Assay [9] concerns the target T2, Dual specificity tyrosine-phosphorylation-regulated kinase 3 (Homo sapiens, UniProt O43781).
T2 sequence (O43781 whole entry): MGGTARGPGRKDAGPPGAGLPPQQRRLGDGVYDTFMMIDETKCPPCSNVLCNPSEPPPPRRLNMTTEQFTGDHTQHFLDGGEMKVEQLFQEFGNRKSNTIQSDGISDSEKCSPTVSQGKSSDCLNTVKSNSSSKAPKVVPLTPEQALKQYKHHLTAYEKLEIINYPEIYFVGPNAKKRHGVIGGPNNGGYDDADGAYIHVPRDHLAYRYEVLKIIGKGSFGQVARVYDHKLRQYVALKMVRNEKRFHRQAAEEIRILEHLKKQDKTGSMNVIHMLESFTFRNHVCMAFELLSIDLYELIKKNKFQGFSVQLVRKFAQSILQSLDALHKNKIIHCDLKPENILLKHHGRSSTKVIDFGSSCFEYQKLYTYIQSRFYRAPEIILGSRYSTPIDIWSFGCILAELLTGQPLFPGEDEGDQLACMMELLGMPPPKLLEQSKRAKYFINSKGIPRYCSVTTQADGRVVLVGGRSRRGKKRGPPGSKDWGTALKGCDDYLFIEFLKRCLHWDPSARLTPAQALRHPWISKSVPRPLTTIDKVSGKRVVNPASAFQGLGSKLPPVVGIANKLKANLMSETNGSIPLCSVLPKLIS

In assay [10] the target is T3, Dual specificity tyrosine-phosphorylation-regulated kinase 4 (Homo sapiens, UniProt Q9NR20).
T3 sequence (Q9NR20 whole entry): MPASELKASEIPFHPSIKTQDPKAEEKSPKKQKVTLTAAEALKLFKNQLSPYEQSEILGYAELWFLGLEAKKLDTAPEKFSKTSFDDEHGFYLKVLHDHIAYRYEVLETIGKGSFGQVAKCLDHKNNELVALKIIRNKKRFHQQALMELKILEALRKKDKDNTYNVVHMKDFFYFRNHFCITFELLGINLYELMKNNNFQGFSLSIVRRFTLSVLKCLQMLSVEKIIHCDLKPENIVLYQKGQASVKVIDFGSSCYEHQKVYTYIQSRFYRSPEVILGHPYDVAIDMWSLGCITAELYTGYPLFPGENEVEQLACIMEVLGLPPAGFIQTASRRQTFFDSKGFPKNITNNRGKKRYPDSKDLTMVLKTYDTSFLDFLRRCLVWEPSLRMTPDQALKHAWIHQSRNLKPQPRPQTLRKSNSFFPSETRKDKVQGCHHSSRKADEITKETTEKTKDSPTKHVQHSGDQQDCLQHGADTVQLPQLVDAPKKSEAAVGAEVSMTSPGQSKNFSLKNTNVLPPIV

In assay [11] the target is Glycogen synthase kinase-3 (Homo sapiens, UniProt P49840+P49841). It is filed as protein assay.

Bounds are passed on as bounds.

Chain of Dual specificity protein kinase CLK4 (Q9HAZ1 whole entry): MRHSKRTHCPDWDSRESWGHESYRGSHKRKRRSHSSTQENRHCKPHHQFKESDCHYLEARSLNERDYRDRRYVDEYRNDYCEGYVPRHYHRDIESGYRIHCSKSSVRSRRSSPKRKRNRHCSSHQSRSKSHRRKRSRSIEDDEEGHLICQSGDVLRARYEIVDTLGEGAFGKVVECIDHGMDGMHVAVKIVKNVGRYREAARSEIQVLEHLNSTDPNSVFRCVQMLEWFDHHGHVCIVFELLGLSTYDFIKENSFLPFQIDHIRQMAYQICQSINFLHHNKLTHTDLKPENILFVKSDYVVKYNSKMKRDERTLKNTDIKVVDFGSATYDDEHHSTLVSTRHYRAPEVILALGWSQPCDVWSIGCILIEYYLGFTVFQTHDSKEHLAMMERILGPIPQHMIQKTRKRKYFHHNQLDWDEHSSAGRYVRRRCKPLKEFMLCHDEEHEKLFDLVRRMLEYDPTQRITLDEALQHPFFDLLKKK
Chain of Dual specificity protein kinase CLK3 (P49761 whole entry): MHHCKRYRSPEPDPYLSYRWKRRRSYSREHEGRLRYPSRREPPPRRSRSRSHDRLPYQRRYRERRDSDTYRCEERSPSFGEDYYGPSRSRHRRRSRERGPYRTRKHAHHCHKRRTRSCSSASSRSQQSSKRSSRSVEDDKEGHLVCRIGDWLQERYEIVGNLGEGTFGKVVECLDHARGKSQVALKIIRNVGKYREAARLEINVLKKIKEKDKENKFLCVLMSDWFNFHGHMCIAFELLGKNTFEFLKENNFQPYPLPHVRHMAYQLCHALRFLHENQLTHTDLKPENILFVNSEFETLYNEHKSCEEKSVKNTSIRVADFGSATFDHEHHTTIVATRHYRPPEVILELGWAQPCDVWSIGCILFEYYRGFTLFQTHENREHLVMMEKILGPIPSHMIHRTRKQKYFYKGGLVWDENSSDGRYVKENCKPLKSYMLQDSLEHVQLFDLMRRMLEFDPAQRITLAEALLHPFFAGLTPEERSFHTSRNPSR
Chain of Dual specificity tyrosine-phosphorylation-regulated kinase 1B (Q9Y463 whole entry): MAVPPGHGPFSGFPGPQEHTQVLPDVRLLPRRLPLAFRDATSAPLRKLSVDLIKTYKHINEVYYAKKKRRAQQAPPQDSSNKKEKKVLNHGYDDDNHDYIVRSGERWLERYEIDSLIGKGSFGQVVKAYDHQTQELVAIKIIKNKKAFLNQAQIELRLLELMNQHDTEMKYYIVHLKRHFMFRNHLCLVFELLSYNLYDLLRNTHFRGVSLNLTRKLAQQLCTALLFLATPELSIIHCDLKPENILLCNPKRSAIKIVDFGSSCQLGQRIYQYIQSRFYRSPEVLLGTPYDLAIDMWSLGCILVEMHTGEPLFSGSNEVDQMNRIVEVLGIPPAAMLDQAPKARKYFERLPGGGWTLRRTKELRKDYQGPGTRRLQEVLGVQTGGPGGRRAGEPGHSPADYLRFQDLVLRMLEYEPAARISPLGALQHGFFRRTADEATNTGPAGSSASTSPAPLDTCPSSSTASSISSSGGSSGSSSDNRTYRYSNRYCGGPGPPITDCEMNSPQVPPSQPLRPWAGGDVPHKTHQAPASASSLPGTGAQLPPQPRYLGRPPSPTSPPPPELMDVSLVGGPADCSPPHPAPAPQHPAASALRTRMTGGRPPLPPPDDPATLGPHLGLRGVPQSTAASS
Chain of Dual specificity protein kinase CLK1 (P49759 whole entry): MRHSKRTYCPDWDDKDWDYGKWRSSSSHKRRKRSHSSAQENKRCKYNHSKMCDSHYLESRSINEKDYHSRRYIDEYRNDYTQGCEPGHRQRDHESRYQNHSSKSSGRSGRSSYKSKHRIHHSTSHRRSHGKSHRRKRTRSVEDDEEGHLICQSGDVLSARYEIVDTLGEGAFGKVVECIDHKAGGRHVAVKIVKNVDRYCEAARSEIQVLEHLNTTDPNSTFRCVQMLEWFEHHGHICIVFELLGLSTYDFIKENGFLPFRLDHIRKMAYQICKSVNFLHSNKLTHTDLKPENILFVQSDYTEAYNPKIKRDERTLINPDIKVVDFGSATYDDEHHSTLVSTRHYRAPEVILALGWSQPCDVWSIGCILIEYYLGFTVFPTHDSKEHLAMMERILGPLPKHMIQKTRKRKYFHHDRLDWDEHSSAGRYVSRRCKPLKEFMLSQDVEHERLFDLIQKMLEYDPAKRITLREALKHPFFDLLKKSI

On to `COC[C@@H](CC(C)C)NC1=N/C(=C\c2ccc3ncsc3c2)C(=O)N1C1CCCC1`, for which the IC50 is 2.45 µM in assay [1]; 1.01 µM in assay [2]; over 10 µM in assay [3]; over 10 µM in [4]; over 10 µM in assay [5]; over 10 µM against Casein kinase I. Besides, the IC50 in assay [6] is 6.47 µM; in assay [7], 5.32 µM; in assay [8], 0.774 µM; in assay [9], over 10 µM; in [10], over 10 µM; in assay [11], over 10 µM.
With `COC[C@@H](CC(C)C)NC1=N/C(=C\c2cc3scnc3cn2)C(=O)N1`, the half-inhibitory concentration (IC50) is over 10 µM in assay [1]; 6.49 µM in [2]; over 10 µM in assay [5]; over 10 µM against Casein kinase I; over 10 µM in assay [6]; over 10 µM in [7]. Also, the half-inhibitory concentration (IC50) in assay [9], in assay [10] and in assay [11] was over 10 µM throughout.
For the molecule `COC[C@@H](CC(C)C)NC1=N/C(=C\c2cnc3ncsc3c2)C(=O)N1`, the IC50 (in assay [1]; in assay [2]; in [5]; against Casein kinase I; in assay [6]; in assay [7]) was over 10 µM each time. The 50% inhibitory concentration (IC50) in assay [8], in assay [10] and in assay [11] was over 10 µM in each case.
For the molecule `COC[C@@H](CC(C)C)NC1=N/C(=C\c2ccc3ncsc3c2)C(=O)N1C1CCC1`, the IC50 in assay [1] was 1.42 µM; in assay [2], 1.21 µM; in assay [3], 5.62 µM; in [5], over 10 µM; on Casein kinase I, over 10 µM; in [7] it was 4.69 µM. Besides, the half-maximal inhibitory concentration (IC50) is 0.581 µM in assay [8], 5.32 µM in [9] and over 10 µM in assay [11].
As for `CC(C)C[C@H](CO)NC1=N/C(=C\c2ccc3ncsc3c2)C(=O)N1`, the IC50 is 0.0139 µM in assay [1]; over 10 µM in assay [5]; over 10 µM on Casein kinase I; 0.461 µM in assay [7]; 0.635 µM in [8]; 0.31 µM in assay [9]. Further, the IC50 in assay [10] is 0.51 µM; in [11], 2.32 µM.
For `COC[C@@H](CC(C)C)NC1=N/C(=C\c2ccc3ncsc3n2)C(=O)N1`, the IC50 in assay [1] was 0.0336 µM; in [2], 0.0264 µM; in [3] it was 0.0365 µM; in assay [4], 0.085 µM; in assay [5], over 10 µM; on Casein kinase I it was over 10 µM. Besides, the IC50 in assay [7] stood at 0.219 µM; in assay [8] it was 4.36 µM; in assay [9], 1.38 µM; in [10], 4.78 µM; in assay [11], 4.27 µM.
Consider `COC[C@@H](CC(C)C)NC1=N/C(=C\c2ccc3ncsc3c2)C(=O)N1C1CC1`, for which the half-inhibitory concentration (IC50) in assay [2] is 0.24 µM; in assay [3], 0.506 µM; in assay [5], over 10 µM; against Casein kinase I, over 10 µM; in [6], 0.643 µM; in assay [7], 1.26 µM. Also, the values for the IC50 in [9], in assay [10] and in assay [11] were 0.842 µM, 2.86 µM and 8.988 µM, respectively.
Consider `CC(C)C[C@@H](CO)NC1=N/C(=C\c2ccc3ncsc3c2)C(=O)N1`, for which the IC50 in assay [1] was 0.0387 µM; in assay [5], over 10 µM; against Casein kinase I it was over 10 µM; in [7], 0.474 µM; in assay [8], 2.84 µM; in assay [9], 0.493 µM. Moreover, the 50% inhibitory concentration (IC50) stood at 5.18 µM in assay [10] and 8.165 µM in [11].
With `COC[C@@H](CC(C)C)NC1=N/C(=C\c2ccc3ncsc3c2)C(=O)N1C1CCCCC1`, the half-maximal inhibitory concentration (IC50) in assay [1] is over 10 µM; in assay [2], 4.91 µM; in [4] it was over 10 µM; in assay [5], over 10 µM; against Casein kinase I, over 10 µM; in assay [6] it was over 10 µM. Besides, the half-inhibitory concentration (IC50) in [7] is over 10 µM; in assay [8], 3.97 µM; in assay [10], over 10 µM; in [11], over 10 µM.

The record behind these values is ChEMBL document CHEMBL5375979, “Chemical, Biochemical, Cellular, and Physiological Characterization of Leucettinib-21, a Down Syndrome and Alzheimer's Disease Drug Candidate” (J Med Chem, 2023).
